We go through three molecules from US20110152267A1, “Compositions and Methods for Treating Hyperproliferative Disorders” (Texas Tech University System, priority 2009, published 2011).

Test [1] relates to CHLA-266 brain cancer (PNET) cell line. The test can be described thus: DIMSCAN cytotoxicity dose-response with fenretinide (Examples A, FIGS. 2, 8, 13). In kind it is cell-based, human. Particulars: 2% oxygen, at one or more doses, +96 hrs. The procedure: Cytotoxicity Assay: Cytotoxicity in cell lines was determined using a fluorescence-based assay employing digital imaging microscopy (DIMSCAN)(after Fragala, et al, Mol Cancer Ther, 6:886-897, 2007). DIMSCAN quantitates viable cells which selectively accumulate fluorescein diacetate and is capable of measuring cytotoxicity over a 4-5 log dynamic range by quantifying total fluorescence per well (which is proportional to viable, clonogenic cells) after eliminating background fluorescence using digital thresholding and eosin Y quenching. Briefly, cell lines were seeded into 96-well plates in 100 µL of complete culture medium (10-20% serum) per well. Cells were incubated overnight in 2%, 5% or 20% oxygen (room air) prior to addition of drugs in […] volumes of complete medium to various final drug concentrations in replicates of 12 wells per concentration. In assays employing D-threo-PPMP, PPMP was employed at a fixed, minimally-toxic, final concentration of 10 μM in each well. Control wells received ethanol (final concentration=0.12%-0.20%) in complete medium equivalent to the maximum final ethanol concentration of drug-treated wells. Plates were incubated at various oxygen concentrations to simulate physiological hypoxia (i.e., 2% oxygen=typical solid tumor oxygen levels; 5%=bone marrow oxygen levels for leukemias; 20% room air=supraphysiological oxygen for comparison with typical laboratory culture conditions). Plates were assayed at 3-4 days after initiating drug exposure depending on the growth properties of each cell line, to allow for maximum cell death and outgrowth of surviving cells. To measure cytotoxicity, FDA (stock solution of 1 mg/ml in DMSO) was added, in 50 µL of complete medium per well, to a final concentration of 10 µg/ml. The plates were incubated for an additional 15-30 minutes at 37 C and then 30 µL of eosin Y (0.5% in normal saline) was added per well. Total fluorescence of each well was then measured using digital imaging microscopy. […]

The test system of test [2] is MDA-MB-231 breast adenocarcinoma cell line. Put plainly: DIMSCAN cytotoxicity, fenretinide + L-threo-sphinganines 3:1 (Example B14). The test is classed as cell-based, human. To be noted: MDA-MB-231, 20% O2, 96 h. As to the method:
(§1) Cytotoxicity Assay—Once again, cytotoxicity is determined using the DIMSCAN assay system (R. Proffitt et al., Cytometry 24, 204-213 (1996); T. Frgala et al., Mol Cancer Ther. 6:886-97, 2007). The system employs digital imaging microscopy to quantify viable cells, which selectively accumulate fluorescein diacetate to become brightly fluorescent. The system is capable of measuring cytotoxicity over a 4-5 log dynamic range by quenching the residual fluorescence of dead and dying cells with eosin Y and quantifying the total fluorescence of viable cells using digital thresholding. Measured fluorescence is directly proportionate to the number of viable cells. A comparison of the total fluorescence of a drug-treated cell population to the fluorescence of a similar number of untreated cells yields a survival fraction. In brief, 2000 to 10,000 cells/well (depending on size and growth rates) are replicate plated into 60 wells of a 96-well tissue culture plate in 0.1 mL of whole medium and allowed to attach overnight. Drug(s) are then added in 0.05 mL of whole medium to the final concentrations indicated. Drugs (fenretinide, and various chain length L-threo-sphinganines) were tested both as single agents and in a 3:1 ratio of fenretinide:sphinganine. C18-L-threo-sphinganine, or “safingol,” was also tested and results shown for reference. There are 12 wells treated per drug concentration. Twelve wells receive drug vehicle-only to the appropriate final concentration and serve as controls for the plate. Cells are incubated for 96 hours at 37° C. in ambient air with 5% CO2. Fluorescein diacetate is then added to each well in 0.05 mL media to a final concentration of 8 microgram/mL. Cells are incubated for a further 15 minutes at 37° C. and 0.03 mL of 0.5% eosin Y is added to each well. Total fluorescence of viable cells is then measured by digital imaging microscopy. Results were graphed as the ratio of the fluoresecence of drug-treated wells to non-drug treated control wells (i.e., Survival Fraction). All tests were performed at least twice. Representative results are shown.
(§2) The Combination Index (CI) is a term to describe mathematical modeling of the pharmacologic effects on cytotoxicity (cell death) of two drugs in combination based. Cytotoxic “synergy” is defined as a cell death affect which is greater than would be expected from a simple product of the single agent cytotoxicities alone (i.e. an “additive” effect). By Chou-Talalay analysis, a CI<0.9 on a Fraction Affected (“Fa”, i.e. fraction of cells killed) indicates synergy, with smaller numbers indicating greater synergy; a CI of 0.9-1.1 signifies an additive or near-additive effect; and a CI>1.1 means the drug combination is antagonistic.
(§3) Fenretinide and L-threo-sphinganines tested in human breast adenocarcinoma (breast cancer) cell lines, MCF-7 and MDA-MB-231.

Test [3] relates to MCF-7 breast adenocarcinoma cell line. The test is described as above. The test is classed as cell-based, human. Particulars: 96 h. The procedure: as §1, §2, §3
Test [4] deals with MCF-7/ADR (OVCAR-8/ADR) ovarian cancer cell line. Put plainly: DIMSCAN cytotoxicity dose-response with fenretinide (Examples A, FIG. 16). In kind it is cell-based, human. Particulars: 2% oxygen, at one or more doses, +96 hrs. As to the method: Cytotoxicity Assay: Cytotoxicity in cell lines was determined using a fluorescence-based assay employing digital imaging microscopy (DIMSCAN)(after Fragala, et al, Mol Cancer Ther, 6:886-897, 2007). DIMSCAN quantitates viable cells which selectively accumulate fluorescein diacetate and is capable of measuring cytotoxicity over a 4-5 log dynamic range by quantifying total fluorescence per well (which is proportional to viable, clonogenic cells) after eliminating background fluorescence using digital thresholding and eosin Y quenching. Briefly, cell lines were seeded into 96-well plates in 100 µL of complete culture medium (10-20% serum) per well. Cells were incubated overnight in 2%, 5% or 20% oxygen (room air) prior to addition of drugs in […] volumes of complete medium to various final drug concentrations in replicates of 12 wells per concentration. In assays employing D-threo-PPMP, PPMP was employed at a fixed, minimally-toxic, final concentration of 10 μM in each well. Control wells received ethanol (final concentration=0.12%-0.20%) in complete medium equivalent to the maximum final ethanol concentration of drug-treated wells. […] Total fluorescence of each well was then measured using digital imaging microscopy. […]

Test [5] relates to CRL-2091 normal human fibroblast cell line. The test can be described thus: DIMSCAN cytotoxicity, fenretinide + L-threo-sphinganines 3:1 (Example B1). The test is classed as cell-based. To be noted: CRL-2091, 20% O2, 96 h. The procedure:
as §1, §2
(§4) Fenretinide and L-threo-sphinganines tested in normal human fibroblast (normal skin cell) cell lines, CRL-2091 and CRL-2076.

For test [6], the system named is CRL-2076 normal human fibroblast cell line. Described as above. The test is classed as cell-based. Particulars: CRL-2076, 20% O2, 96 h. The procedure: as §1, §2, §4
Setting [7] is: 4-HPR 1.5 μM + L-threo-sphinganine 0.5 μM.
[8] abbreviates: 4-HPR 3 μM + L-threo-sphinganine 1 μM.
Where [9] appears, read: 4-HPR 6 μM + L-threo-sphinganine 2 μM.
The mark [10] stands for this setting: 4-HPR 9 μM + L-threo-sphinganine 3 μM.

In the case of `CCCCCCCCCCCCCCCC[C@H](O)[C@@H](N)CO` [C19, (2S,3S)-2-amino-1,3-nonadecanediol], the “C.I. (Combination Index) with fenretinide” value (shortened to “C.I. (Combination Index)”) in test [1] is on record as less than 1. The “CI (Combination Index)” value in test [2] (setting [7]) is 1.2; in test [2] (setting [8]), 1.2; in test [2] (setting [9]) it was 1.1; in test [2] (setting [10]) it was 0.7; in test [3] (setting [7]), 1.2; in test [3] (setting [8]), 0.8. The results for the “CI (Combination Index)” value in test [3] (setting [9]) and in test [3] (setting [10]) were 0.8 and 0.9, respectively. Further, the “Fa (fraction affected)” value in test [2] (setting [7]) is 0.078; in test [2] (setting [8]) it was 0.195; in test [2] (setting [9]) it was 0.503; in test [2] (setting [10]) it was 0.909; in test [3] (setting [7]), 0.138; in test [3] (setting [8]) it was 0.736. The entries for the “Fa (fraction affected)” value in test [3] (setting [9]) and in test [3] (setting [10]) were 0.965 and 0.991, respectively.

Consider `CCCCCCCCCCCCCCCCC[C@H](O)[C@@H](N)CO` [C20, (2S,3S)-2-amino-1,3-icosanediol], for which the “C.I. (Combination Index)” value in test [4] and in test [1] was less than 1 in each case. Besides, the “CI (Combination Index)” value in test [2] (setting [7]) is reported as 2.0; in test [2] (setting [8]), 1.1; in test [2] (setting [9]), 1.3; in test [2] (setting [10]), 1.8; in test [3] (setting [7]) it was 0.8; in test [3] (setting [8]), 0.4. For the same molecule, the results for the “CI (Combination Index)” value in test [3] (setting [9]) and in test [3] (setting [10]) were 0.3 and 0.1, respectively. Besides, the “Fa (fraction affected)” value in test [2] (setting [7]) was 0.011; in test [2] (setting [8]), 0.190; in test [2] (setting [9]), 0.583; in test [2] (setting [10]), 0.664; in test [3] (setting [7]), 0.287; in test [3] (setting [8]) it was 0.852. Further, the “Fa (fraction affected)” value in test [3] (setting [9]) is 0.971; in test [3] (setting [10]), 0.998.

On to `CCCCCCCCCCCCCC[C@H](O)[C@@H](N)CO` [C17, (2S,3S)-2-amino-1,3-heptadecanediol], for which, in test [1], the “C.I. (Combination Index)” value is listed as less than 1. The “CI (Combination Index)” value in test [5] (setting [7]), in test [5] (setting [8]), in test [5] (setting [9]), in test [5] (setting [10]), in test [6] (setting [7]) and in test [6] (setting [8]) was greater than 1 throughout. Moreover, the “CI (Combination Index)” value in test [6] (setting [9]) is reported as greater than 1; in test [6] (setting [10]), greater than 1; in test [2] (setting [7]), 1.3; in test [2] (setting [8]), 0.9; in test [2] (setting [9]), 0.8; in test [2] (setting [10]), 0.7. For the same molecule, the “CI (Combination Index)” value in test [3] (setting [7]) turned out to be 1.3; in test [3] (setting [8]), 0.7; in test [3] (setting [9]) it was 0.4; in test [3] (setting [10]), 0.4. Moreover, the “Fa (fraction affected)” value in test [5] (setting [7]) is on record as 0.13; in test [5] (setting [8]), 0.25; in test [5] (setting [9]), 0.13; in test [5] (setting [10]), 0.62; in test [6] (setting [7]) it was 0.05; in test [6] (setting [8]), 0.04. In addition, the “Fa (fraction affected)” value is reported as 0.09 in test [6] (setting [9]); 0.15 in test [6] (setting [10]); 0.127 in test [2] (setting [7]); 0.265 in test [2] (setting [8]); 0.610 in test [2] (setting [9]); 0.948 in test [2] (setting [10]). Moreover, the “Fa (fraction affected)” value is 0.112 in test [3] (setting [7]), 0.661 in test [3] (setting [8]), 0.974 in test [3] (setting [9]) and 0.993 in test [3] (setting [10]).
